Patent publication US7482144B2, “Method for the production of xylitol” (priority 2000, dated 2009)

Test system: β-xylosidase
Assay: Possible inhibiting effect of xylitol on β-xylosidase
Format: biochemical
Description: 300 nkat concentrated β-xylosidase was incubated with 0, 1, 5, 10, 50, 100, 200 and 300 g/l of xylitol at 28° C. Samples were taken after 0, 0.5, 1, 2, 4, 6, 8, 24, 48 and 72 hours incubation and stored at −20° C. The activity of β-xylosidase was measured as described in Poutanen and Puls (1988) Appl. Microbiol. Biotechnol. 28:425-432. The activity of β-xylosidase remained stable in all the samples taken and thus it is not inhibited by xylitol.

- Inhibition of β-xylosidase activity by xylitol (300 nkat β-xylosidase, 0-300 g/l xylitol, 28° C., 0-72 hours): not inhibited
- Inhibition of xylanolytic activity by xylitol (studies conducted so far): has not been shown to inhibit
Structure (SMILES): OC[C@@H](O)[C@H](O)[C@@H](O)CO [xylitol]
